Results reported in patent publication US10071095B2, “1,2,4-triazolo [4,3-A] pyridine derivatives and their use for the treatment of neurological and psychiatric disorders” (JANSSEN PHARMACEUTICALS, INC., priority 2009, dated 2018).

These compounds were tested against T1, human mGluR2 receptor (Homo sapiens, UniProt Q14416) (assay: [35S]GTPγS binding assay, positive allosteric modulation (GTPγS-PAM) in presence of EC20 glutamate). Details: in presence of glutamate at EC20; average pEC50 if more experiments; ‡ means tested once.
T1 construct: expressed in transfected cells; host or cells: CHO cells
Assay type: biochemical
Description: [^35S]GTPγS Binding Assay
The [^35S]GTPγS binding assay is a functional membrane-based assay used to study G-protein coupled receptor (GPCR) function whereby incorporation of a non-hydrolysable form of GTP, [^35S]GTPγS (guanosine 5′-triphosphate, labelled with […] ^35S), is measured. The G-protein α subunit catalyzes the exchange of guanosine 5′-diphosphate (GDP) by guanosine triphosphate (GTP) and on activation of the GPCR by an agonist, [^35S]GTPγS, becomes incorporated and cannot be cleaved to continue the exchange cycle (Harper (1998) Current Protocols in Pharmacology 2.6.1-10, John Wiley & Sons, Inc.). […] Here we describe the use of the [^35S]GTPγS binding assay using membranes from cells transfected with the human mGluR2 receptor and adapted from Schaffhauser et al. ((2003) Molecular Pharmacology 4:798-810) for the detection of the positive allosteric modulation (PAM) properties of the compounds of this invention.
CHO-cells were cultured to pre-confluence and stimulated with 5 mM butyrate for 24 h, prior to washing in PBS, and then collected by scraping in homogenisation buffer (50 mM Tris-HCl buffer, pH 7.4, 4° C.). Cell lysates were homogenized briefly using an ultra-turrax homogenizer. The homogenate was centrifuged at 16,000 RPM (Sorvall RC-5C plus rotor SS-34) for 10 minutes and the supernatant discarded. The pellet was resuspended in 5 mM Tris-HCl, pH 7.4 and centrifuged again (18,000 RPM, 20 min, 4° C.). The final pellet was resuspended in 50 mM Tris-HCl, pH 7.4 and stored at −80° C. in appropriate aliquots before use. Protein concentration was determined by the Bradford method (Bio-Rad, USA) with bovine serum albumin as standard.
Measurement of mGluR2 positive allosteric modulatory activity of test compounds was performed as follows. Test compounds and glutamate were diluted in assay buffer containing 10 mM HEPES acid, 10 mM HEPES salt, pH 7.4, 100 mM NaCl, 3 mM MgCl2 and 10 μM GDP. Human mGlu2 receptor-containing membranes were thawed on ice and diluted in assay buffer supplemented with 14 μg/ml saponin. Membranes were pre-incubated with compound alone or together with a predefined (˜EC20) concentration of glutamate (PAM assay) for 30 min at 30° C. After addition of [^35S]GTPγS (f.c. 0.1 nM) microplates were shaken briefly and further incubated to allow [^35S]GTPγS incorporation on activation (30 minutes, 30° C.). Final assay mixtures contained 7 μg of membrane protein in 10 mM HEPES acid, 10 mM HEPES salt, pH 7.4, 100 mM NaCl, 3 mM MgCl2, 10 µM GDP and 10 μg/ml saponin. Total reaction volume was 200 μl. Reactions were terminated by rapid filtration through Unifilter-96 GF/B filter plates (Packard, Meriden, Conn.) using a 96-well Packard filtermate harvester. Filters were washed 6 times with ice-cold 10 mM NaH2PO4/10 mM Na2HPO4, pH 7.4. Filters were then air-dried, and 40 μl of liquid scintillation cocktail (Microscint-O) was added to each well. Membrane-bound radioactivity was counted in a Microplate Scintillation and Luminescence Counter from Packard.
The concentration-response curves of representative compounds of the present invention-obtained in the presence of EC20 of mGluR2 agonist glutamate to determine positive allosteric modulation (PAM)—were generated using the Lexis software interface (developed at J&J).

T1 sequence (Q14416 19-872): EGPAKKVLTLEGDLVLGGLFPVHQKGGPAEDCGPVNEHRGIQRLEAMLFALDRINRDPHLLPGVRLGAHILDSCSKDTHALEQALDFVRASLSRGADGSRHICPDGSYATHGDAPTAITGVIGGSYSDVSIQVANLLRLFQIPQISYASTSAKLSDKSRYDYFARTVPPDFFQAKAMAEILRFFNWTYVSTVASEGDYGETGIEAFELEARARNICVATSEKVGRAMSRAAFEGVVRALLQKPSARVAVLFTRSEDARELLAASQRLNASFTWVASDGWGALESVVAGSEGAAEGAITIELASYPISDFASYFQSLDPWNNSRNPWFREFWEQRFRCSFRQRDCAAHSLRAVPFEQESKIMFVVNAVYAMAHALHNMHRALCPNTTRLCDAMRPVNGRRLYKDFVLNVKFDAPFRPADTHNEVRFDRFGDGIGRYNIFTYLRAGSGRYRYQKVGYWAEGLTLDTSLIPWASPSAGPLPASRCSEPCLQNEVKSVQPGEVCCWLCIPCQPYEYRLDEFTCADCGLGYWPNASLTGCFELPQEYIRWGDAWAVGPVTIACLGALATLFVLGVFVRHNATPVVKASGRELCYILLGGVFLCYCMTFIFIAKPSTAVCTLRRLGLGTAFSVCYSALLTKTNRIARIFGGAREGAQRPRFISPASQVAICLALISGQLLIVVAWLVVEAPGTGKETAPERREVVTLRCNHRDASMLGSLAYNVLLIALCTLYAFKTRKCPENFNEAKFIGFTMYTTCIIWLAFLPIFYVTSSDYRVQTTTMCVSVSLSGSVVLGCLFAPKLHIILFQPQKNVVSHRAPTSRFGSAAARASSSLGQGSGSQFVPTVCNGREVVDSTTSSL

SMILES | GTPγS - hR2 PAM pEC50
Cl.Fc1cccc2c1COC21CCN(c2ccn3c(CC4CC4)nnc3c2Cl)CC1 [compound 108] | 6.91‡
Fc1cccc2c1COC21CCN(c2ccn3c(CC4CC4)nnc3c2C(F)(F)F)CC1 [compound 109] | 7.29
CCCc1nnc2c(C(F)(F)F)c(N3CCC4(CC3)OCc3c(F)cccc34)ccn12 [compound 110] | 6.86
CCCc1nnc2c(C(F)(F)F)c(N3CCC4(CC3)OC(C)(C)c3ccccc34)ccn12 [compound 113] | 7.59
Fc1cccc(C2(C(F)(F)F)CCN(c3ccn4c(CC5CC5)nnc4c3Cl)CC2)c1 [compound 117] | 6.68
N#Cc1c(N2CCC(c3ccccc3)(C(F)(F)F)CC2)ccn2c(CC3CC3)nnc12 [compound 120] | 6.31
CC(C)OCc1nnc2c(Cl)c(N3CCC(F)(c4ccccc4)CC3)ccn12 [compound 127] | 6.42
CC1(c2ccccc2)CCN(c2ccn3c(CC4CC4)nnc3c2Cl)CC1 [compound 133] | 7.05
CC(C)OCc1nnc2c(Cl)c(N3CCC(c4ccccc4)CC3)ccn12 [compound 135] | 6.77
FC1(c2ccccc2)CCN(c2ccn3c(CCC4CC4)nnc3c2Cl)CC1 [compound 140] | 6.55
CC(C)OCc1nnc2c(Cl)c(N3CCC(c4ccccc4)(C(F)(F)F)CC3)ccn12 [compound 144] | 6.25
Clc1c(N2CCC(c3ccccc3)CC2)ccn2c(CCC3CC3)nnc12 [compound 146] | 7.02
O=C1OC2(CCN(c3ccn4c(CC5CC5)nnc4c3Cl)CC2)c2ccccc21 [compound 149] | 6.5‡
Cc1c(N2CCC3(CC2)OC(C)(C)c2ccccc23)ccn2c(CC3CC3)nnc12 [compound 154] | 7.13
Clc1c(N2CCN(c3coc4ccccc34)CC2)ccn2c(CC3CC3)nnc12 [compound 157] | 6.18
FC(F)(F)C1(OCc2cccnc2)CCN(c2ccn3c(CC4CC4)nnc3c2Cl)CC1 [compound 158] | 6.14
Clc1c(N2CCC3(CC2)COc2cccnc23)ccn2c(CC3CC3)nnc12 [compound 161] | 5.68‡
FC(F)(F)C(c1ccccc1)N1CCN(c2ccn3c(CC4CC4)nnc3c2Cl)CC1 (centres unmarked) [compound 163] | 6.97‡
Clc1c(N2CCN(C3COc4ccccc4C3)CC2)ccn2c(CC3CC3)nnc12 (centres unmarked) [compound 164] | 6.46
Fc1ccc(N2C[C@@H]3CN(c4ccn5c(CC6CC6)nnc5c4C(F)(F)F)C[C@@H]3C2)c(F)c1 [compound 166] | 7.22
CC1CN(c2ccn3c(CC4CC4)nnc3c2Cl)CCC1c1ccccc1 (centres unmarked) [compound 168] | 7.22
Clc1c(N2CCC(Oc3cccnc3)CC2)ccn2c(CC3CC3)nnc12 [compound 170] | 5.84‡
Clc1c(N2CCC(c3ccccc3)C2)ccn2c(CC3CC3)nnc12 (centres unmarked) [compound 173] | 6.32‡
Fc1ccccc1NC1CCN(c2ccn3c(CC4CC4)nnc3c2Cl)CC1 [compound 176] | 6.3
Fc1cc(F)cc(CN2CCN(c3ccn4c(CC5CC5)nnc4c3Cl)CC2)c1 [compound 179] | 5.79‡

Other lines, results leading:

GTPγS - hR2 PAM pEC50 | SMILES
6.26 | COc1cnc(C2CCN(c3ccn4c(CC5CC5)nnc4c3C(F)(F)F)CC2)nc1 [compound 111]
6.33 | FC(F)(F)Cc1nnc2c(Cl)c(N3CCC(Oc4ccccn4)CC3)ccn12 [compound 114]
6.83 | FC(F)(F)c1c(N2CCc3ccccc3C2)ccn2c(CC3CC3)nnc12 [compound 118]
7.3 | CC(C)OCc1nnc2c(C(F)(F)F)c(N3CCC(c4ccccc4)CC3)ccn12 [compound 122]
6.98 | FC(F)(F)c1c(N2CCC(Oc3ccccn3)CC2)ccn2c(CC3CC3)nnc12 [compound 124]
6.92 | FC(F)(F)c1c(N2CCC(Oc3ccccn3)CC2)ccn2c(CCC3CC3)nnc12 [compound 129]
6.4 | FC(F)(F)c1c(N2Cc3ccccc3C2)ccn2c(CC3CC3)nnc12 [compound 130]
6.68 | CCOCc1nnc2c(C(F)(F)F)c(N3CCC(Oc4ccccn4)CC3)ccn12 [compound 132]
7.17 | CCOCc1nnc2c(C(F)(F)F)c(N3CCC(Oc4ncccc4C)CC3)ccn12 [compound 134]
7.69‡ | CCOCc1nnc2c(C(F)(F)F)c(N3CCC(c4ccccc4)CC3)ccn12 [compound 136]
6.87 | FC(F)(F)c1c(N2CC(c3ccccc3)C2)ccn2c(CC3CC3)nnc12 [compound 137]
6.95 | CCOCc1nnc2c(C(F)(F)F)c(N3CCC(F)(c4ccccc4)CC3)ccn12 [compound 141]
6.55‡ | CCCc1nnc2c(C(F)(F)F)c(N3CCC4(CC3)OC(F)(F)c3ccccc34)ccn12 [compound 142]
6.97‡ | CC(C)OCc1nnc2c(C(F)(F)F)c(N3CCC(Oc4ccccn4)CC3)ccn12 [compound 150]
6.78 | FC(F)(F)c1c(N2CC[C@H](Oc3ccccc3)C2)ccn2c(CC3CC3)nnc12 [compound 152]
6.83‡ | CC(C)OCc1nnc2c(C(F)(F)F)c(N3CCN(c4ccccc4)CC3)ccn12 [compound 155]
6.93 | Cc1cccnc1OC1CCN(c2ccn3c(COC(C)C)nnc3c2C(F)(F)F)CC1 [compound 162]
6.41 | Cc1cc(OC2CCN(c3ccn4c(CC5CC5)nnc4c3C(F)(F)F)CC2)ccn1 [compound 165]
6.47‡ | FC(F)(F)c1c(N2CCC(Oc3cccnc3)CC2)ccn2c(CC3CC3)nnc12 [compound 167]
7.77‡ | CC1CN(c2ccn3c(CC4CC4)nnc3c2C(F)(F)F)CCC1c1ccccc1 (centres unmarked) [compound 169]
5.91‡ | FC(F)(F)c1c(N2CCC(c3ccccc3)C2)ccn2c(CC3CC3)nnc12 (centres unmarked) [compound 174]
6.33 | FC(F)(F)c1c(N2CCC(Nc3ccccc3)CC2)ccn2c(CC3CC3)nnc12 [compound 175]
7.67 | CC(C)(C)Cc1nnc2c(C(F)(F)F)c(N3CCC(c4ccccc4)CC3)ccn12 [compound 177]
7.08 | Fc1ccccc1NC1CCN(c2ccn3c(CC4CC4)nnc3c2C(F)(F)F)CC1 [compound 183]
8.26 | FC(F)(F)c1c(N2CCC(c3ccccc3)CC2)ccn2c(CC3CCC3)nnc12 [compound 185]

Same assay, conditions: in presence of glutamate at EC20; average pEC50 if more experiments; ‡ means tested once; read-out: GTPγS - hR2 PAM pEC50 (converted)

EC50 | SMILES
1740 nM | FC(F)(F)c1c(N2CCC3(CC2)COc2ncccc23)ccn2c(CC3CC3)nnc12 [compound 119, 1′-[3-cyclopropylmethyl-8-(trifluoromethyl)[1,2,4]triazolo[4,3-a]pyridin-7-yl]-spiro[furo[2,3-b]pyridine-3(2H),4′-piperidine]]
4.37 nM | CC1(C)OC2(CCN(c3ccn4c(CC(F)(F)F)nnc4c3Cl)CC2)c2ccccc21 [compound 139]
245 nM | FC(F)(F)c1c(N2CCC3(CC2)OC(F)(F)c2ccccc23)ccn2c(CC3CC3)nnc12 [compound 147, 1′-[3-cyclopropylmethyl-8-(trifluoromethyl)[1,2,4]triazolo[4,3-a]pyridin-7-yl]-3,3-difluoro-3H-spiro[benzo[c]furan-1,4′-piperidine]]
